Common to all, as to assay type: functional
The subject of assay [1] is Alopecurus myosuroides. In words: Herbicidal activity against Alopecurus myosuroides after 4 weeks by pre-emergence greenhouse test. Set-up: concentration or dose not given beside the values.
In assay [2] the test system is Stellaria media. In words: Herbicidal activity against Stellaria media after 4 weeks by pre-emergence greenhouse test. More on the design: concentration or dose not given beside the values.
Assay [3] concerns Triticum aestivum. In words: Phytotoxic activity against Triticum aestivum (wheat) after 3 weeks by post-emergence greenhouse test. More on the design: concentration or dose not given beside the values.
Assay [4] has as its system Mutarda arvensis. In words: Herbicidal activity against Sinapis arvensis after 3 weeks by post-emergence greenhouse test. More on the design: concentration or dose not given beside the values.
The subject of assay [5] is Triticum aestivum. The assay is described as follows: Phytotoxic activity against Triticum aestivum (wheat) after 4 weeks by pre-emergence greenhouse test.
For assay [6], the system named is Chenopodium album. In words: Herbicidal activity against Chenopodium album after 4 weeks by pre-emergence greenhouse test. Set-up: concentration or dose not given beside the values.
The test system of assay [7] is Bromus tectorum. In words: Herbicidal activity against Bromus tectorum after 3 weeks by post-emergence greenhouse test. Set-up: concentration or dose not given beside the values.
In assay [8] the test system is Mutarda arvensis. In words: Herbicidal activity against Sinapis arvensis after 4 weeks by pre-emergence greenhouse test. Set-up: concentration or dose not given beside the values.
In assay [9] the test system is Avena fatua. In words: Herbicidal activity against Avena fatua after 3 weeks by post-emergence greenhouse test. More on the design: concentration or dose not given beside the values.
The subject of assay [10] is Alopecurus myosuroides. In words: Herbicidal activity against Alopecurus myosuroides after 3 weeks by post-emergence greenhouse test. Set-up: concentration or dose not given beside the values.
The test system of assay [11] is Stellaria media. The assay is described as follows: Herbicidal activity against Stellaria media after 3 weeks by post-emergence greenhouse test. More on the design: concentration or dose not given beside the values.
The test system of assay [12] is Matricaria chamomilla. In words: Herbicidal activity against Matricaria chamomilla after 3 weeks by post-emergence greenhouse test. More on the design: concentration or dose not given beside the values.
Assay [13] has as its system Bromus tectorum. The assay is described as follows: Herbicidal activity against Bromus tectorum after 4 weeks by pre-emergence greenhouse test. Set-up: concentration or dose not given beside the values.
Assay [14] concerns Matricaria chamomilla. The assay is described as follows: Herbicidal activity against Matricaria chamomilla after 4 weeks by pre-emergence greenhouse test. More on the design: concentration or dose not given beside the values.
Assay [15] has as its system Avena fatua. The assay is described as follows: Herbicidal activity against Avena fatua after 4 weeks by pre-emergence greenhouse test. More on the design: concentration or dose not given beside the values.
Assay [16] concerns Chenopodium album. In words: Herbicidal activity against Chenopodium album after 3 weeks by post-emergence greenhouse test. More on the design: concentration or dose not given beside the values.

The text below walks through data of ChEMBL document CHEMBL3046418, “Synthesis and Herbicidal Activity of Sulfonylurea Compounds with Imidazo [1, 2-a] pyridine Moiety” (2001).

Turning to `COc1cc(OC)nc(NC(=O)NS(=O)(=O)c2c(S(=O)(=O)c3ccccc3)nc3ccccn23)n1`, the Activity was 0% in [1]; 0% in assay [2]; 0% in [3]; 51% in assay [4]; 0% in assay [6]; 0% in assay [7]. Moreover, the Activity in [8] was 1%; in [9], 0%; in assay [10], 0%; in [11], 1%; in assay [12] it was 1%; in [13], 0%. Moreover, the results for the Activity in [14], in assay [15] and in assay [16] were 1%, 0% and 0%, respectively. The same molecule registered a Phytotoxicity in [5] of 0%.
Take `CC[S+]([O-])c1nc2ccccn2c1S(=O)(=O)NC(=O)Nc1nc(OC)cc(OC)n1` (configuration not stated): the Activity is recorded as 1% in assay [1]; 1% in assay [2]; 0% in assay [3]; 51% in assay [4]; 1% in assay [6]; 51% in assay [7]. Besides, the Activity stood at 1% in assay [8]; 0% in assay [9]; 1% in assay [10]; 1% in [11]; 76% in [12]; 0% in [13]. Besides, the Activity is given as 88% in assay [14], 0% in assay [15] and 1% in assay [16]. This molecule also showed a Phytotoxicity in assay [5] of 0%.
As to `COc1cc(OC)nc(NC(=O)NS(=O)(=O)c2c(S(=O)(=O)C(C)C)nc3ccccn23)n1`, the Activity in assay [1] is recorded as 88%; in assay [2], 51%; in assay [3] it was 0%; in assay [4], 51%; in assay [6], 76%; in [7] it was 51%. The Activity in assay [8] is listed as 88%; in assay [9], 1%; in [10] it was 88%; in assay [11], 76%; in assay [12], 51%; in [13], 51%. Moreover, the values for the Activity in assay [14], in assay [15] and in [16] were 88%, 1% and 1%, respectively. For the same molecule, in assay [5], the Phytotoxicity is reported as 0%.
Consider `CCS(=O)(=O)c1nc2ccccn2c1S(=O)(=O)NC(=O)Nc1nc(Cl)cc(OC)n1`, for which the Activity in [1] stood at 1%; in [2], 1%; in assay [3], 0%; in assay [4], 100%; in assay [6], 0%; in assay [7] it was 51%. Also, the Activity in assay [8] is listed as 76%; in assay [9], 1%; in assay [10] it was 51%; in assay [11], 1%; in [12], 1%; in [13] it was 1%. The values for the Activity in assay [14], in assay [15] and in [16] were 51%, 0% and 1%, respectively. The molecule also had a Phytotoxicity in [5] of 0%.
On to `CCC[S+]([O-])c1nc2ccccn2c1S(=O)(=O)NC(=O)Nc1nc(OC)cc(OC)n1` (configuration not stated), for which the Activity in assay [1] is 0%; in assay [2], 0%; in assay [3] it was 0%; in [4] it was 51%; in assay [6] it was 0%; in assay [7], 1%. The Activity in assay [8] is reported as 1%; in assay [9] it was 0%; in [10] it was 1%; in [11], 51%; in assay [12], 1%; in [13], 0%. Moreover, the figures for the Activity in assay [14], in [15] and in assay [16] were 76%, 0% and 1%, respectively. This molecule also gave a Phytotoxicity in assay [5] of 0%.
As to `CCCS(=O)(=O)c1nc2ccccn2c1S(=O)(=O)NC(=O)Nc1nc(OC)cc(OC)n1`, the Activity in [1] is 76%; in assay [2], 76%; in assay [3] it was 0%; in assay [4], 76%; in assay [6] it was 0%; in assay [7], 51%. Besides, the Activity in [8] is 51%; in assay [9], 1%; in assay [10], 76%; in assay [11] it was 76%; in assay [12], 51%; in assay [13] it was 1%. The Activity in assay [14] was 88%; in [15], 0%; in assay [16] it was 0%. In assay [5], the Phytotoxicity was 0%.
`CCCSc1nc2ccccn2c1S(=O)(=O)NC(=O)Nc1nc(OC)cc(OC)n1`: the Activity in assay [1] is 1%; in assay [2], 0%; in assay [3] it was 0%; in assay [4], 51%; in assay [6], 0%; in assay [7] it was 1%. Moreover, the Activity in assay [8] is recorded as 1%; in [9] it was 0%; in [10] it was 1%; in [11], 1%; in assay [12] it was 0%; in assay [13] it was 0%. Besides, the Activity in assay [14] amounted to 88%; in assay [15], 0%; in assay [16], 0%. In assay [5], this molecule displayed a Phytotoxicity of 0%.
Consider `COc1cc(OC)nc(NC(=O)NS(=O)(=O)c2c(SC(C)C)nc3ccccn23)n1`, for which the Activity in [1] came out at 0%; in assay [2], 0%; in [3], 0%; in assay [4] it was 51%; in assay [6], 1%; in [7] it was 1%. The Activity is recorded as 1% in [8]; 0% in assay [9]; 1% in assay [10]; 1% in assay [11]; 51% in assay [12]; 0% in [13]. The Activity was determined as 88% in assay [14], 0% in assay [15] and 1% in [16]. Besides, the Phytotoxicity in assay [5] was determined as 0%.
Take `COc1cc(OC)nc(NC(=O)NS(=O)(=O)c2c(SC)nc3ccccn23)n1`: the Activity in assay [1] turned out to be 1%; in [2], 51%; in [3], 0%; in [4], 88%; in assay [6], 51%; in assay [7] it was 1%. For the same molecule, the Activity was 1% in assay [8]; 0% in [9]; 1% in assay [10]; 1% in assay [11]; 76% in assay [12]; 0% in assay [13]. The results for the Activity in [14], in [15] and in assay [16] were 88%, 0% and 0%, respectively. The molecule also yielded a Phytotoxicity in assay [5] of 0%.
Take `COc1cc(OC)nc(NC(=O)NS(=O)(=O)c2c([S+]([O-])c3ccccc3)nc3ccccn23)n1` (configuration not stated): the Activity is 0% in [1]; 0% in assay [2]; 0% in assay [3]; 51% in assay [4]; 0% in [6]; 1% in [7]. Also, the Activity in assay [8] amounted to 1%; in assay [9], 0%; in [10], 1%; in [11], 1%; in assay [12] it was 1%; in assay [13] it was 0%. Also, the Activity was 1% in assay [14], 0% in [15] and 0% in [16]. The molecule further returned a Phytotoxicity in [5] of 0%.
Turning to `COc1cc(OC)nc(NC(=O)NS(=O)(=O)c2c(Sc3ccccc3)nc3ccccn23)n1`, the Activity in [1] is reported as 0%; in assay [2] it was 0%; in [3], 1%; in assay [4] it was 51%; in [6], 0%; in assay [7], 0%. The Activity in [8] is 1%; in assay [9] it was 0%; in [10], 0%; in assay [11] it was 1%; in [12] it was 1%; in [13], 0%. For the same molecule, the Activity is 51% in assay [14], 0% in assay [15] and 0% in assay [16]. The same molecule showed a Phytotoxicity in assay [5] of 0%.
With `COc1cc(OC)nc(NC(=O)NS(=O)(=O)c2c([S+](C)[O-])nc3ccccn23)n1` (configuration not stated), the Activity is listed as 0% in assay [1]; 0% in assay [2]; 0% in assay [3]; 76% in [4]; 0% in assay [6]; 1% in [7]. Further, the Activity stood at 51% in [8]; 0% in assay [9]; 0% in assay [10]; 0% in [11]; 76% in assay [12]; 0% in assay [13]. Moreover, the Activity in assay [14] is reported as 51%; in assay [15], 0%; in assay [16] it was 0%. This molecule also gave a Phytotoxicity in assay [5] of 0%.
